Measured values taken from PubChem BioAssay (NCI).
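Method: 48-hour compound exposure of cells in 96-well plates, five concentrations, linear interpolation of endpoints. At the GI50, growth is halved. Definition used: TGI = concentration required for complete inhibition of growth.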

Tests used:
Assay in all cases: NCI tumour cell line growth inhibition, 48 h
786-0 renal = tested on: 786-0 renal
A498 renal = tested on: A498 renal
A549 NSCLC = tested on: A549 NSCLC
ACHN renal = tested on: ACHN renal
BT-549 breast = tested on: BT-549 breast
CAKI-1 renal = tested on: CAKI-1 renal
CCRF-CEM leukemia = tested on: CCRF-CEM leukemia
COLO 205 colon = tested on: COLO 205 colon
DU-145 prostate = tested on: DU-145 prostate
EKVX NSCLC = tested on: EKVX NSCLC
HCC-2998 colon = tested on: HCC-2998 colon
HCT-116 colon = tested on: HCT-116 colon
HCT-15 colon = tested on: HCT-15 colon
HL-60(TB) leukemia = tested on: HL-60(TB) leukemia
HOP-62 NSCLC = tested on: HOP-62 NSCLC
HOP-92 NSCLC = tested on: HOP-92 NSCLC
HS 578T breast = tested on: HS 578T breast
HT29 colon = tested on: HT29 colon
IGROV1 ovarian = tested on: IGROV1 ovarian
K-562 leukemia = tested on: K-562 leukemia
KM12 colon = tested on: KM12 colon
LOX IMVI melanoma = tested on: LOX IMVI melanoma
M14 melanoma = tested on: M14 melanoma
MALME-3M melanoma = tested on: MALME-3M melanoma
MCF7 breast = tested on: MCF7 breast
MDA-MB-231 breast = tested on: MDA-MB-231 breast
MDA-MB-435 = tested on: MDA-MB-435
MDA-MB-468 breast = tested on: MDA-MB-468 breast
MOLT-4 leukemia = tested on: MOLT-4 leukemia
NCI-H226 lung = tested on: NCI-H226 lung
NCI-H23 lung = tested on: NCI-H23 lung
NCI-H460 lung = tested on: NCI-H460 lung
NCI-H522 lung = tested on: NCI-H522 lung
NCI/ADR-RES ovarian = tested on: NCI/ADR-RES ovarian
OVCAR-3 ovarian = tested on: OVCAR-3 ovarian
OVCAR-4 ovarian = tested on: OVCAR-4 ovarian
OVCAR-5 ovarian = tested on: OVCAR-5 ovarian
OVCAR-8 ovarian = tested on: OVCAR-8 ovarian
PC-3 prostate = tested on: PC-3 prostate
RPMI-8226 leukemia = tested on: RPMI-8226 leukemia
RXF 393 renal = tested on: RXF 393 renal
SF-268 CNS = tested on: SF-268 CNS
SF-539 CNS = tested on: SF-539 CNS
SK-MEL-2 melanoma = tested on: SK-MEL-2 melanoma
SK-MEL-28 melanoma = tested on: SK-MEL-28 melanoma
SK-MEL-5 melanoma = tested on: SK-MEL-5 melanoma
SK-OV-3 ovarian = tested on: SK-OV-3 ovarian
SN12C renal = tested on: SN12C renal
SNB-19 CNS = tested on: SNB-19 CNS
SNB-75 CNS = tested on: SNB-75 CNS
SR leukemia = tested on: SR leukemia
SW-620 colon = tested on: SW-620 colon
T-47D breast = tested on: T-47D breast
TK-10 renal = tested on: TK-10 renal
U251 CNS = tested on: U251 CNS
UACC-257 melanoma = tested on: UACC-257 melanoma
UACC-62 melanoma = tested on: UACC-62 melanoma
UO-31 renal = tested on: UO-31 renal

`C/C(=N/O)c1ccc(NC(=O)CSc2nnc(-c3ccc(-c4nc5ccc(Cl)cc5[nH]4)cc3)o2)cc1` gave a GI50 (786-0 renal) of 1.91 µM, a TGI (786-0 renal) of 3.53 µM and a GI50 (A498 renal) of 1.94 µM. The TGI (A498 renal) was 4.58 µM, the GI50 (A549 NSCLC) was 1.98 µM and the TGI (A549 NSCLC) was 4.2 µM. It also gave a GI50 (ACHN renal) of 2.7 µM, a TGI (ACHN renal) of 8.65 µM and a GI50 (BT-549 breast) of 2.39 µM. For the same molecule, the TGI (BT-549 breast) was 4.35 µM, the GI50 (CAKI-1 renal) was 1.85 µM and the TGI (CAKI-1 renal) was 3.73 µM. For the same molecule, the GI50 (CCRF-CEM leukemia) was 2.33 µM, the TGI (CCRF-CEM leukemia) was 6.75 µM and the GI50 (COLO 205 colon) was 3.14 µM. The TGI (COLO 205 colon) was 12.2 µM, the GI50 (DU-145 prostate) was 2.09 µM and the TGI (DU-145 prostate) was 4.73 µM. For the same molecule, the GI50 (EKVX NSCLC) was 3.05 µM, the TGI (EKVX NSCLC) was 13.2 µM and the GI50 (HCC-2998 colon) was 11.2 µM. For the same molecule, the TGI (HCC-2998 colon) was > 100 µM, the GI50 (HCT-116 colon) was 2.29 µM and the TGI (HCT-116 colon) was 5.73 µM. For the same molecule, the GI50 (HCT-15 colon) was 34.5 µM, the TGI (HCT-15 colon) was > 100 µM and the GI50 (HL-60(TB) leukemia) was 3.63 µM. It also gave a TGI (HL-60(TB) leukemia) of 17.4 µM, a GI50 (HOP-62 NSCLC) of 2.01 µM and a TGI (HOP-62 NSCLC) of 3.95 µM. For the same molecule, the GI50 (HOP-92 NSCLC) was 1.83 µM, the TGI (HOP-92 NSCLC) was 3.86 µM and the GI50 (HS 578T breast) was 2.21 µM. The TGI (HS 578T breast) was 5.19 µM, the GI50 (HT29 colon) was 2.44 µM and the TGI (HT29 colon) was 6 µM. The GI50 (IGROV1 ovarian) was 3.35 µM, the TGI (IGROV1 ovarian) was 12 µM and the GI50 (K-562 leukemia) was 2.63 µM. It also gave a TGI (K-562 leukemia) of 10.6 µM, a GI50 (KM12 colon) of 2.66 µM and a TGI (KM12 colon) of 8.48 µM. It also gave a GI50 (LOX IMVI melanoma) of 1.57 µM, a TGI (LOX IMVI melanoma) of 2.92 µM and a GI50 (M14 melanoma) of 1.76 µM. For the same molecule, the TGI (M14 melanoma) was 3.54 µM, the GI50 (MALME-3M melanoma) was 1.58 µM and the TGI (MALME-3M melanoma) was 2.95 µM. It also gave a GI50 (MCF7 breast) of 2.2 µM, a TGI (MCF7 breast) of 5.93 µM and a GI50 (MDA-MB-231 breast) of 1.83 µM. The TGI (MDA-MB-231 breast) was 3.52 µM, the GI50 (MDA-MB-435) was 1.65 µM and the TGI (MDA-MB-435) was 3.27 µM. For the same molecule, the GI50 (MDA-MB-468 breast) was 1.81 µM, the TGI (MDA-MB-468 breast) was 4.09 µM and the GI50 (MOLT-4 leukemia) was 2.62 µM. For the same molecule, the TGI (MOLT-4 leukemia) was 12.4 µM, the GI50 (NCI-H226 lung) was 1.74 µM and the TGI (NCI-H226 lung) was 3.68 µM. For the same molecule, the GI50 (NCI-H23 lung) was 1.9 µM, the TGI (NCI-H23 lung) was 4.09 µM and the GI50 (NCI-H460 lung) was 1.61 µM. For the same molecule, the TGI (NCI-H460 lung) was 3.25 µM, the GI50 (NCI-H522 lung) was 1.57 µM and the TGI (NCI-H522 lung) was 3.42 µM. For the same molecule, the GI50 (NCI/ADR-RES ovarian) was 84.7 µM, the TGI (NCI/ADR-RES ovarian) was > 100 µM and the GI50 (OVCAR-3 ovarian) was 1.74 µM. It also gave a TGI (OVCAR-3 ovarian) of 3.73 µM, a GI50 (OVCAR-4 ovarian) of 2.04 µM and a TGI (OVCAR-4 ovarian) of 4.58 µM. It also gave a GI50 (OVCAR-5 ovarian) of 3.33 µM, a TGI (OVCAR-5 ovarian) of 13.8 µM and a GI50 (OVCAR-8 ovarian) of 2.94 µM. The TGI (OVCAR-8 ovarian) was 9.98 µM, the GI50 (PC-3 prostate) was 2.21 µM and the TGI (PC-3 prostate) was 5.08 µM. For the same molecule, the GI50 (RPMI-8226 leukemia) was 3.16 µM, the TGI (RPMI-8226 leukemia) was 15 µM and the GI50 (RXF 393 renal) was 1.75 µM. It also gave a TGI (RXF 393 renal) of 3.31 µM, a GI50 (SF-268 CNS) of 1.83 µM and a TGI (SF-268 CNS) of 3.78 µM. For the same molecule, the GI50 (SF-539 CNS) was 1.71 µM, the TGI (SF-539 CNS) was 3.08 µM and the GI50 (SK-MEL-2 melanoma) was 1.78 µM. The TGI (SK-MEL-2 melanoma) was 3.68 µM, the GI50 (SK-MEL-28 melanoma) was 1.73 µM and the TGI (SK-MEL-28 melanoma) was 3.18 µM. The GI50 (SK-MEL-5 melanoma) was 1.75 µM, the TGI (SK-MEL-5 melanoma) was 3.33 µM and the GI50 (SK-OV-3 ovarian) was 2.38 µM. The TGI (SK-OV-3 ovarian) was 5.33 µM, the GI50 (SN12C renal) was 1.87 µM and the TGI (SN12C renal) was 4.06 µM. The GI50 (SNB-19 CNS) was 1.9 µM, the TGI (SNB-19 CNS) was 3.62 µM and the GI50 (SNB-75 CNS) was 1.57 µM. For the same molecule, the TGI (SNB-75 CNS) was 3.41 µM, the GI50 (SR leukemia) was 2.84 µM and the TGI (SR leukemia) was 15.5 µM. It also gave a GI50 (SW-620 colon) of 2.84 µM, a TGI (SW-620 colon) of 8.54 µM and a GI50 (T-47D breast) of 2.05 µM. It also gave a TGI (T-47D breast) of 4.5 µM, a GI50 (TK-10 renal) of 5.78 µM and a TGI (TK-10 renal) of 17.4 µM. For the same molecule, the GI50 (U251 CNS) was 1.83 µM, the TGI (U251 CNS) was 3.4 µM and the GI50 (UACC-257 melanoma) was 2.06 µM. For the same molecule, the TGI (UACC-257 melanoma) was 4.5 µM, the GI50 (UACC-62 melanoma) was 1.78 µM and the TGI (UACC-62 melanoma) was 3.36 µM. For the same molecule, the GI50 (UO-31 renal) was 37.2 µM and the TGI (UO-31 renal) was > 100 µM.
